Results from US20080146657A1, “Plant-Origin Alpha3-Adrenoceptor Agonist and Use of the Same” (priority 2003, published 2008).
Like-named read-outs stand apart in the source and are kept apart here.

Key:
3T3-L1 adipocytes = assay: Measurement of lipolytic effect using 3T3-L1 cells (glycerol release); assay type: cell-based, mouse; conditions: 5 μM to 500 μM; 3 days incubation
Protocol: 3T3-L1 cells which are adipocyte precursor cells derived from mice (purchased from Human Science Research Resource Bank) were added into a 96-well plate at 1×10^4 cells/well, and then cultured in Dulbecco's modified Eagle medium (D-MEM, GIBCO) supplemented with 10% fetal calf serum (FCS) at 37° C. in a 5% CO2 atmosphere. To induce differentiation to adipocytes, right before the cells reaches confluency, the medium was exchanged with 10% FCS-containing D-MEM supplemented with 0.5 mM 3-isobutyl-1-methylxanthine, 2×10^−7 M dexamethasone, and 0.8 μM insulin. Two days later, the medium was exchanged with 10% FCS-containing D-MEM supplemented only with 0.8 μM insulin. […] The culture medium of the cells cultured in the 96-well plate were removed by aspiration, 10% FCS-containing D-MEM containing the test substance was added at 100 μL/well, and after incubation for 3 days, 80 μL of the culture medium was collected from each well, and the amount of glycerol in the culture medium was determined using “F-Kit Glycerol” (Boehringer Mannheim). […] To a test medium, 0.5 to 500 μg/mL of dried lotus leaf extract, 0.5 to 500 μM of quercetin, and 10^−8 M to 10^−5 M of isoproterenol as a positive control were added individually, and the amount of glycerol released into the medium due to degradation of the fat stored in 3T3-L1 adipocytes was measured.

[1] = target: T1, human β3-adrenergic receptor (Homo sapiens, UniProt P13945); assay: Measurement of human β3-adrenergic receptor agonist activity (intracellular cAMP, recombinant CHO-K1 cells); assay type: cell-based
T1 construct: expressed in transfected cells; vector pTracer-EF A
Protocol: The obtained recombinant cells were cultured in a 96-well microplate until the cell density reaches 100%. After the medium was removed, the cells were washed once with Dulbecco's modified phosphate buffer solution (hereinafter, abbreviated as PBS; TaKaRa), and then 100 μL of an assay buffer [DMEM, 10% FCS, 20 mM HEPES (pH 7.2), 0.1 mM isobutylmethylxanthine] containing 10 μM isoproterenol was added. As a control, the assay buffer was used without addition of isoproterenol. After incubation at 37° C. for 20 minutes, the cells were washed once with PBS, and then the amount of intracellular cAMP were quantified using a cAMP EIA Kit (Amersham Bioscience). […] The selected recombinant cells were further cultured. […]
The human β3-adrenergic receptor-expressing recombinant 6H4-2d3 was cultured in a 96-well microplate in DMEM containing 10% FCS and 500 μg/mL Zeocin at 37° C. in a 5% CO2 atmosphere. […] The cells were washed once with PBS, and an assay buffer [DMEM, 10% FCS, 20 mM HEPES (pH 7.2), 0.1 mM isobutylmethylxanthine] supplemented with the test substance to be measured was added at 100 μL/well. After incubation at 37° C. for 10 minutes, the cells were washed once with PBS, and then their intracellular cAMP levels were quantified using a cAMP EIA Kit (Amersham Bioscience). […] The same test substance was measured three times and the mean and standard deviation of the measurements were used. […]

[2] = system: rat β-adrenergic receptor; conditions: rat adipocytes treated with quercetin; cited from earlier work
[3] = cited from earlier work

T1 sequence (P13945 1-402 limits assumed): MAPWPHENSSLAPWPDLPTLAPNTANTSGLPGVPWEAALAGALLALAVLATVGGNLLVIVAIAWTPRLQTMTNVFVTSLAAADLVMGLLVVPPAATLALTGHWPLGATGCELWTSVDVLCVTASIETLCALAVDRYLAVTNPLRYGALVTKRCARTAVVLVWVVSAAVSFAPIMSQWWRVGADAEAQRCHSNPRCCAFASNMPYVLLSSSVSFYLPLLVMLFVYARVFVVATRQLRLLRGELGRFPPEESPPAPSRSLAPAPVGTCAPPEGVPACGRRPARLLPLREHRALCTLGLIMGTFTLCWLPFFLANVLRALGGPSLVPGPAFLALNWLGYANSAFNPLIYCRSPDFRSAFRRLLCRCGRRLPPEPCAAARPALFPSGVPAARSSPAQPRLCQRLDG

| Structure (SMILES) | Lipolysis (glycerol released into the medium) (3T3-L1 adipocytes) | accumulation of cAMP ([1]; 15 μM, 30 µM, 60 μM, only in CHO-K1 cells expressing the receptor, not in non-expressing CHO-K1) | cAMP accumulation [2] | Solubility ([3]; boiling water) | Solubility ([3]; cold alcohol-ether) | Solubility ([3]; cold water) | Solubility ([3]; hot alcohol-glacial acetic acid) | β3-adrenergic receptor agonist activity (cAMP) ([1]; 1 μM, 10 μM, 100 μM, 1000 μM, compared with quercetin) |
| --- | --- | --- | --- | --- | --- | --- | --- | --- |
| O=c1c(O)c(-c2ccc(O)c(O)c2)oc2cc(O)cc(O)c12 [quercetin, 3,3′,4′,5,7-pentahydroxyflavone] | significantly promoted | significant accumulation of cAMP | cAMP accumulates | slightly soluble | poorly soluble | insoluble | readily soluble | – |
| O=C(O)[C@H]1O[C@@H](Oc2c(-c3ccc(O)c(O)c3)oc3cc(O)cc(O)c3c2=O)[C@H](O)[C@@H](O)[C@@H]1O [Q3GA, quercetin 3-O-β-D-glucuronide] | – | – | – | – | – | – | – | β3-adrenergic receptor agonist activity similar to that of quercetin |
